Measured values reported in publication PMC8667948, “Mechanism of biotin carboxylase inhibition by ethyl 4-[[2-chloro-5-(phenylcarbamoyl)phenyl]sulphonylamino]benzoate” (Journal of Enzyme Inhibition and Medicinal Chemistry, 2021).
Where two headings read alike, the source gives them in different places.

Experiments:
BC = tested on: BC; design: method as in PMID 4922289; conditions: % activity of biotin; cited from earlier work
biotin carboxylase (BC) [1] = molecular target: T1, biotin carboxylase (BC) (Escherichia coli, UniProt P24182); assay: Multiple inhibition assay (Yonetani-Theorell) on BC; format: biochemical; conditions: aminooxazole varied 0.2-3.2 µM at fixed SABA1 0, 75, 150 µM; ATP 0.2 mM, biotin 40 mM; intersecting pattern
T1 construct: His tag (N); made in house
Procedure: To determine the multiple inhibition pattern with respect to ATP, aminooxazole was varied from 0.2 µM to 3.2 µM. SABA1 was held at fixed concentrations of 0.0 µM, 75 µM, or 150 µM. ATP and biotin were held constant at 0.2 mM and 40 mM, respectively. To determine the multiple inhibition pattern with respect to biotin, desthiobiotin was varied from 1.0 mM to 20 mM. SABA1 was held at fixed concentrations of 0.0 µM, 75 µM, or 150 µM. ATP and biotin were held constant at 0.2 mM and 40 mM, respectively.
Multiple inhibition data were fitted to Equation (3) where v is the experimentally determined velocity, V is maximal velocity, L and J are the concentration of the two inhibitors, KL and KJ are the apparent inhibition constants of those respective inhibitors, and α is the interaction factor of the two inhibitors. (3) v=V/1+L/KL+J/KJ+LJ/αKLKJ
Competitive inhibition means that binding of the inhibitor and the substrate to the enzyme are mutually exclusive. […] To determine if SABA1 can bind in the ATP binding site, biotin binding site or both, multiple inhibition analysis was performed as described by Yonetani and Theorell[42]. Multiple inhibition analysis is used to define the topological relationship between two different enzyme inhibitors. Initial velocities are measured while one inhibitor is varied against fixed increasing concentrations of the second inhibitor. […]

biotin carboxylase (BC) [2] = molecular target: T1, biotin carboxylase (BC); assay: Biotin carboxylase inhibition assay, ATP or biotin varied (pyruvate kinase/lactic dehydrogenase coupled); format: biochemical; conditions: SABA1 0, 75, 150 µM
Procedure: (§1) For inhibition studies that varied ATP or biotin, initial velocities were measured as previously reported. In brief, pyruvate kinase and lactic dehydrogenase were used to couple ADP production to NADH oxidation, which can be measured spectrophotometrically at 340 nm. For inhibition studies varying ADP, activity was determined by following the production of inorganic phosphate (Pi) using the EnzChek® Phosphate Assay Kit (Molecular Probes) according to the manufacturer’s protocol. In brief, purine nucleoside phosphorylase converts 2-amino-6-mercapto-7-methylpurine riboside to ribose 1-phosphate and 2-amino-6-mercapto-7-methylpurine in the presence of Pi. This reaction is monitored at […][32]. Kinetic data were collected on a Cary60 UV-Vis spectrophotometer (Agilent Technologies)
To determine the inhibition pattern versus ATP, ATP was varied from 0.05 mM to 1.0 mM. SABA1 was held at fixed concentrations of 0.0 µM, 75 µM, or 150 µM. Biotin was held constant at 40 mM. […]
Data for inhibition studies varying ATP or biotin were analysed by nonlinear regression using the programs of Cleland[33]. Competitive inhibition data were fitted to Equation (1) where v is the experimentally determined velocity, V is maximal velocity, A is substrate concentration, Km is the Michaelis constant, I is inhibitor concentration and Kis is the inhibition constant for the slope. […]

[3] = tested on: efflux compromised E. coli (ΔtolC::tet); conditions: cited from earlier work
[4] = tested on: efflux compromised P. aeruginosa strain PAO397; design: method as in PMID 26169404; conditions: cited from earlier work
biotin carboxylase (BC) [5] = molecular target: T1, biotin carboxylase (BC); assay: Biotin carboxylase inhibition versus ADP (EnzChek Pi assay); format: biochemical; conditions: ADP varied 0.19-19 µM; ATP 0.6 mM; biotin 40 mM; SABA1 100 µM; fit to Equation (5)
Procedure: as §1
To determine the inhibition pattern versus ADP using the Pi assay, ADP was varied from 0.19 µM to 19 µM. ATP was held constant at 0.6 mM, biotin was held constant 40 mM, and SABA1 was held constant at 100 µM. Each reaction cocktail was incubated in the presence or absence of SABA1 for 10 min. The reaction was started by addition of biotin.
Data for inhibition studies varying ADP were analysed by nonlinear regression using the program Enzfitter[34]. […]

E. coli ACC = tested on: E. coli ACC; design: method as in PMID 26169404; conditions: cited from earlier work
[6] = molecular target: T2, Acetyl-CoA carboxylase (ACC) (Escherichia coli, UniProt P24182); assay: ACC assay, ATP varied (BC:BCCP:CT 1:2:1); format: biochemical; conditions: ATP varied 1.0-16 µM, acetyl-CoA 0.20 mM, SABA1 0, 50, 100 µM
T2 construct: His tag (N); made in house
Procedure: As stated above, the components of ACC were purified separately. Purified BC, BCCP, and CT were combined in a 1:2:1 molar ratio and allowed to equilibrate for 1 h prior to assaying ACC. To determine the inhibition pattern versus ATP, ATP was varied from 1.0 µM to 16 µM. SABA1 was held at fixed concentrations of 0.0 µM, 50 µM, or 100 µM. Acetyl-CoA was held constant at 0.20 mM. The reaction was started by the addition of enzyme.
Non-competitive inhibition data were fitted to Equation (2) where v is the experimentally determined velocity, V is maximal velocity, A is substrate concentration, Km is the Michaelis constant, I is inhibitor concentration and Kii is the inhibition constant for the intercept and Kis is the inhibition constant for the slope. (2) v=VA/Km(1+I/Kis)+A(1+I/Kii)

Compound | activity as slow alternate substrate, relative to biotin (BC) [%] | α value (interaction factor of the two inhibitors) (biotin carboxylase (BC) [1]) | Ki (biotin carboxylase (BC) [2]; ATP varied 0.05-1.0 mM, biotin constant 40 mM (subsaturating), read-out: Kis, competitive inhibition versus ATP) [µM] | Ki (biotin carboxylase (BC) [2]; biotin varied 20-200 mM, ATP constant 0.2 mM (subsaturating), read-out: Kis, competitive inhibition versus biotin) [µM] | MIC [3] [µM] | prolongs the doubling time [4] [%] | Ki, uncompetitive inhibition versus ADP (biotin carboxylase (BC) [5]) [µM] | IC50 (E. coli ACC) [µM] | Ki ([6]; read-out: Kii, non-competitive inhibition versus ATP) [µM] | Ki ([6]; read-out: Kis, non-competitive inhibition versus ATP) [µM]
C[C@@H]1NC(=O)N[C@@H]1CCCCCC(=O)O [Desthiobiotin] | 0.2 | – | – | – | – | – | – | – | – | –
CCOC(=O)c1ccc(NS(=O)(=O)c2cc(C(=O)Nc3ccccc3)ccc2Cl)cc1 [SABA1, ethyl 4-[[2-chloro-5-(phenylcarbamoyl)phenyl]sulfonylamino]benzoate] | – | 0.6 | 242 ± 32 | 142 ± 12.3 | 0.45 to 0.9 | 30 | 10.3 ± 0.1 | 4 | 23.3 ± 4.4 | 96.3 ± 31.6
